In patent US10633669B2, “Herbicide-resistant protein, encoding gene and use thereof” (BEIJING DABEINONG TECHNOLOGY GROUP CO., LTD., priority 2015, dated 2020):

Tests used:
[1] = tested on: Arabidopsis T1 plants transformed with 24DT11 nucleotide sequence; experiment: Herbicide resistance effect test of transgenic Arabidopsis T1 plants (spray); format: in vivo, Arabidopsis thaliana; conditions: genotype 24DT11; for High resistant (number of plants): 560 g ae/ha (1-fold field concentration), growth consistent with blank solvent 7 days after spraying; for Moderate resistant (number of plants) / Non-resistant (number of plants) / Low resistant (number of plants): 560 g ae/ha; for Moderate resistant (number of plants): curly rosette leaves 7 days after spraying; for Non-resistant (number of plants): dead 14 days after spraying; for Low resistant (number of plants): incapable of bolting 14 days after spraying
Excerpt: (§1) 24DT11 gene was used to transform Arabidopsis for the first time. At first, T1 transformants were selected from the background of un-transformed seeds, using glufosinate-ammonium selection scheme. About 20000 T1 seeds are screened among which 282 strains of T1 generation positive transformants (PAT gene) were identified, i.e. the transformation efficiency was about 1.4%. Herbicide resistance effect tests to 2,4-D dimethyl ammonium salt and agroxone of Arabidopsis T1 plants transformed with 24DT11 nucleotide sequence, control nucleotide sequence respectively and wild-type Arabidopsis plants were performed after 18 days of planting.
(§2) Arabidopsis T1 plants transformed with 24DT11 nucleotide sequence, control nucleotide sequence respectively and wild-type Arabidopsis plants were sprayed with 2,4-D dimethyl ammonium salt (560 g ae/ha, 1-fold concentration in field), agroxone (560 g ae/ha, 1-fold concentration in field) and blank solvent (water). Resistance conditions of the plants were counted 7 days and 14 days after spraying. Plants with growth conditions consistent with blank solvent (water) 7 days after spaying were classified as highly resistant plants; Plants with curly rosette leaves 7 days after spaying were classified as moderately resistant plants; Plants incapable of bolting 14 days after spaying were classified as low-resistant plants and the dead plants 14 days after spaying were classified as non-resistant plants. Because each Arabidopsis T1 plant is an independent transformation event, significant differences of individual T1 responses can be expected under a given dose.

[2] = tested on: wild type soybean plants (CK1); experiment: Herbicide-resistance effect of wild type soybean (spray, damage degree); format: in vivo; conditions: wild-type soybean strain CK1, 2240 g ae/ha; for Average damage % 6HAT: 6 hours after spraying; for Average damage % 2DAT: 2 days after spraying; for Average damage % 7DAT: 7 days after spraying; for Average damage % 14DAT: 14 days after spraying
Experimental: (§3) Herbicide resistance effects tests to 2,4-D dimethyl ammonium salt and agroxone of soybean plants containing 24DT11 nucleotide sequence and control nucleotide sequence respectively and wild type soybean plants (stages V3-V4) were performed respectively.
(§4) Soybean plants containing 24DT11 nucleotide sequence, control nucleotide sequence and wild type soybean plants were taken and spayed with 2,4-D dimethyl ammonium salt (2240 g ae/ha, four-folds concentration in field), agroxone (2240 g ae/ha, four-folds concentration in field) and blank solvent (water). Take statistics of the damage degree of each plant caused by herbicides according to the curling degree of leaves and the damage degree of growing point six hours ([…]), two days (2DAT), seven days (7DAT) and 14 days (14DAT) after spraying respectively: if leaves are flat like wild-type leaves and the growing point is intact, the damage degree is 0%; if leaves curl up and wilt and the growing point is died, the damage degree is 100%. There are three strains contained a transferred 24DT11 nucleotide sequence (S1, S2 and S3), two strains contained a transferred control sequence (S4 and S5) and one wild-type strain (CK1) in total; select 10˜15 plants from each strain for testing.

[3] = tested on: Corn plants containing 24DT11 nucleotide sequence (S6, S7 and S8); experiment: Herbicide-resistance effect test of transgenic corn plants (spray, prop root development); format: in vivo; conditions: 21 days after spraying
Experimental: (§5) Herbicide resistance effects tests to 2,4-D dimethyl ammonium salt and agroxone of corn plants containing 24DT11 nucleotide sequence, control nucleotide sequence respectively and wild type corn plants (stages V3-V4) were performed respectively.
(§6) Corn plants containing 24DT11 nucleotide sequence, control nucleotide sequence respectively and wild type corn plants were taken and spayed with 2,4-D dimethyl ammonium salt (8960 g ae/ha, 16-folds concentration in field), agroxone (8960 g ae/ha, 16-folds concentration in field) and blank solvent (water) respectively. Prop root development was counted 21 days after spaying. Three strains (S6, S7 and S8) of corn plants transformed with 24DT11 nucleotide sequence, two strains (S9 and S10) of corn plants transformed with control nucleotide sequence and 1 strain of wild type (CK2) corn were selected and 10-15 plants from each stain were tested.

[4] = tested on: Arabidopsis T1 plants transformed with control nucleotide sequence; experiment: Herbicide resistance effect test of Arabidopsis T1 plants with control sequence (spray); format: in vivo, Arabidopsis thaliana; conditions: genotype Control, 560 g ae/ha; for Moderate resistant (number of plants): curly rosette leaves 7 days after spraying; for Non-resistant (number of plants): dead 14 days after spraying; for High resistant (number of plants): growth consistent with blank solvent 7 days after spraying; for Low resistant (number of plants): incapable of bolting 14 days after spraying
Excerpt: as §1, §2

[5] = tested on: wild-type Arabidopsis plants; experiment: Herbicide resistance effect test of wild-type Arabidopsis (spray); format: in vivo, Arabidopsis thaliana; conditions: genotype Wild, 560 g ae/ha; for Moderate resistant (number of plants): curly rosette leaves 7 days after spraying; for Non-resistant (number of plants): dead 14 days after spraying; for High resistant (number of plants): growth consistent with blank solvent 7 days after spraying; for Low resistant (number of plants): incapable of bolting 14 days after spraying
Excerpt: as §1, §2

[6] = tested on: wild type corn plants (CK2); experiment: Herbicide-resistance effect test of wild type corn (spray, prop root development); format: in vivo; conditions: wild type corn strain CK2; 8960 g ae/ha; 21 days after spraying
Experimental: as §5, §6

[7] = tested on: Corn plants containing control nucleotide sequence (S9 and S10); experiment: Herbicide-resistance effect test of corn plants with control sequence (spray, prop root development); format: in vivo; conditions: 8960 g ae/ha, 21 days after spraying
Experimental: as §5, §6

[8] = tested on: Soybean plants containing 24DT11 nucleotide sequence (S1, S2 and S3); experiment: Herbicide-resistance effect of transgenic soybean plants (spray, damage degree); format: in vivo; conditions: for Average damage % 6HAT: 6 hours after spraying; for Average damage % 2DAT: 2 days after spraying; for Average damage % 7DAT: 7 days after spraying; for Average damage % 14DAT: 14 days after spraying
Experimental: as §3, §4

[9] = tested on: Soybean plants containing control nucleotide sequence (S4 and S5); experiment: Herbicide-resistance effect of soybean plants with control sequence (spray, damage degree); format: in vivo; conditions: 2240 g ae/ha; for Average damage % 6HAT: 6 hours after spraying; for Average damage % 2DAT: 2 days after spraying; for Average damage % 7DAT: 7 days after spraying; for Average damage % 14DAT: 14 days after spraying
Experimental: as §3, §4

[10] = corn strain S6 (24DT11), 8960 g ae/ha (16-fold field)
[11] = corn strain S6 (24DT11), 8960 g ae/ha
[12] = corn strain S7 (24DT11), 8960 g ae/ha
[13] = corn strain S8 (24DT11), 8960 g ae/ha
[14] = corn strain S9 (control sequence)
[15] = corn strain S10 (control sequence)
[16] = soybean strain S1 (24DT11), 2240 g ae/ha (4-fold field)
[17] = soybean strain S1 (24DT11), 2240 g ae/ha
[18] = soybean strain S2 (24DT11), 2240 g ae/ha
[19] = soybean strain S3 (24DT11), 2240 g ae/ha
[20] = soybean strain S4 (control sequence)
[21] = soybean strain S5 (control sequence)

Cc1cc(Cl)ccc1OCC(=O)O [agroxone]
High resistant (number of plants) [1]: 22 | Moderate resistant (number of plants) [1]: 4 | Non-resistant (number of plants) [1]: 3 | Low resistant (number of plants) [1]: 2 | Average damage % 6HAT [2]: 34% | Average damage % 2DAT [2]: 61% | Average damage % 7DAT [2]: 82% | Average damage % 14DAT [2]: 100% | Normal development of brace roots (number of plants) [3, 10]: 11 | Abnormal development of brace roots (number of plants) [3, 11]: 0 | Proportion of normal development of brace roots [3, 11]: 100.00% | Abnormal development of brace roots (number of plants) [3, 12]: 0 | Normal development of brace roots (number of plants) [3, 12]: 11 | Proportion of normal development of brace roots [3, 12]: 100.00% | Abnormal development of brace roots (number of plants) [3, 13]: 0 | Normal development of brace roots (number of plants) [3, 13]: 12 | Proportion of normal development of brace roots [3, 13]: 100.00% | Moderate resistant (number of plants) [4]: 0 | Non-resistant (number of plants) [4]: 32 | High resistant (number of plants) [4]: 0 | Low resistant (number of plants) [4]: 0 | Moderate resistant (number of plants) [5]: 0 | Non-resistant (number of plants) [5]: 32 | High resistant (number of plants) [5]: 0 | Low resistant (number of plants) [5]: 0 | Abnormal development of brace roots (number of plants) [6]: 15 | Normal development of brace roots (number of plants) [6]: 0 | Proportion of normal development of brace roots [6]: 0% | Abnormal development of brace roots (number of plants) [7, 14]: 14 | Normal development of brace roots (number of plants) [7, 14]: 0 | Proportion of normal development of brace roots [7, 14]: 0% | Abnormal development of brace roots (number of plants) [7, 15]: 12 | Normal development of brace roots (number of plants) [7, 15]: 0 | Proportion of normal development of brace roots [7, 15]: 0% | Average damage % 6HAT [8, 16]: 12% | Average damage % 2DAT [8, 17]: 7% | Average damage % 7DAT [8, 17]: 0% | Average damage % 14DAT [8, 17]: 0% | Average damage % 6HAT [8, 18]: 9% | Average damage % 2DAT [8, 18]: 5% | Average damage % 7DAT [8, 18]: 0% | Average damage % 14DAT [8, 18]: 0% | Average damage % 6HAT [8, 19]: 19% | Average damage % 2DAT [8, 19]: 12% | Average damage % 7DAT [8, 19]: 7% | Average damage % 14DAT [8, 19]: 4% | Average damage % 6HAT [9, 20]: 38% | Average damage % 2DAT [9, 20]: 69% | Average damage % 7DAT [9, 20]: 87% | Average damage % 14DAT [9, 20]: 100% | Average damage % 6HAT [9, 21]: 47% | Average damage % 2DAT [9, 21]: 74% | Average damage % 7DAT [9, 21]: 92% | Average damage % 14DAT [9, 21]: 100%

CNC.O=C(O)COc1ccc(Cl)cc1Cl [2,4-D dimethyl ammonium salt]
High resistant (number of plants) [1]: 26 | Moderate resistant (number of plants) [1]: 2 | Non-resistant (number of plants) [1]: 3 | Low resistant (number of plants) [1]: 1 | Average damage % 6HAT [2]: 48% | Average damage % 2DAT [2]: 72% | Average damage % 7DAT [2]: 94% | Average damage % 14DAT [2]: 100% | Normal development of brace roots (number of plants) [3, 10]: 15 | Abnormal development of brace roots (number of plants) [3, 11]: 0 | Proportion of normal development of brace roots [3, 11]: 100.00% | Abnormal development of brace roots (number of plants) [3, 12]: 0 | Normal development of brace roots (number of plants) [3, 12]: 13 | Proportion of normal development of brace roots [3, 12]: 100.00% | Abnormal development of brace roots (number of plants) [3, 13]: 0 | Normal development of brace roots (number of plants) [3, 13]: 12 | Proportion of normal development of brace roots [3, 13]: 100.00% | Moderate resistant (number of plants) [4]: 0 | Non-resistant (number of plants) [4]: 32 | High resistant (number of plants) [4]: 0 | Low resistant (number of plants) [4]: 0 | Moderate resistant (number of plants) [5]: 0 | Non-resistant (number of plants) [5]: 32 | High resistant (number of plants) [5]: 0 | Low resistant (number of plants) [5]: 0 | Abnormal development of brace roots (number of plants) [6]: 14 | Normal development of brace roots (number of plants) [6]: 0 | Proportion of normal development of brace roots [6]: 0% | Abnormal development of brace roots (number of plants) [7, 14]: 13 | Normal development of brace roots (number of plants) [7, 14]: 0 | Proportion of normal development of brace roots [7, 14]: 0% | Abnormal development of brace roots (number of plants) [7, 15]: 12 | Normal development of brace roots (number of plants) [7, 15]: 0 | Proportion of normal development of brace roots [7, 15]: 0% | Average damage % 6HAT [8, 16]: 7% | Average damage % 2DAT [8, 17]: 4% | Average damage % 7DAT [8, 17]: 0% | Average damage % 14DAT [8, 17]: 0% | Average damage % 6HAT [8, 18]: 5% | Average damage % 2DAT [8, 18]: 2% | Average damage % 7DAT [8, 18]: 0% | Average damage % 14DAT [8, 18]: 0% | Average damage % 6HAT [8, 19]: 13% | Average damage % 2DAT [8, 19]: 6% | Average damage % 7DAT [8, 19]: 2% | Average damage % 14DAT [8, 19]: 0% | Average damage % 6HAT [9, 20]: 46% | Average damage % 2DAT [9, 20]: 76% | Average damage % 7DAT [9, 20]: 96% | Average damage % 14DAT [9, 20]: 100% | Average damage % 6HAT [9, 21]: 53% | Average damage % 2DAT [9, 21]: 77% | Average damage % 7DAT [9, 21]: 91% | Average damage % 14DAT [9, 21]: 100%
